The values that follow come from US9238020B2, “Compositions comprising enzyme-cleavable phenol-modified tapentadol prodrug” (priority 2010, dated 2016).

For one data set, the target named is T1, trypsin (Bos taurus, UniProt P00760).
T1 construct: purchased Sigma-Aldrich T8003; host or cells: bovine pancreas
T1 sequence (P00760 24-246): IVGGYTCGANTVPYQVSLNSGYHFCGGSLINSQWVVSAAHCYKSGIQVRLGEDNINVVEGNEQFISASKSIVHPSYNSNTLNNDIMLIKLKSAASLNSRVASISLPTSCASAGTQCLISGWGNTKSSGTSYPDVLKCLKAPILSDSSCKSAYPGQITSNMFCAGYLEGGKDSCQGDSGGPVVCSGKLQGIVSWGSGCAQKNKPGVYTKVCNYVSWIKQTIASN
The data set can be described thus: In vitro trypsin conversion of prodrug to tapentadol and inhibition thereof by Compound 109. The class given is biochemical, bovine. As to conditions: bovine, trypsin from bovine pancreas, pH 8, with Compound 109 (trypsin inhibitor); Table 8; 4815 BAEE U trypsin/mL, Compound 109 40 μM; read-out: Pro-drug trypsin half-life, Average ± sd (converted). The protocol: (§1) Compound TP-1 was incubated with trypsin from bovine pancreas (Catalog No. T8003, Type I, ˜10,000 BAEE units/mg protein, Sigma-Aldrich). Specifically, the reactions included 0.761 nM of Compound TP-1•2HCl, 22.5 mM calcium chloride, 40 to 172 mM Tris pH 8 and 0.25% DMSO with the BAEE units of trypsin indicated in Table 4. The reactions were conducted at 37° C. for 24 hr. Samples were collected at specified time points, transferred into 0.5% formic acid in acetonitrile to stop trypsin activity and stored at less than −70° C. until analysis by LC-MS/MS.
(§2) Compound TP-1 was also incubated in the presence of 2 micromolar (μM) trypsin inhibitor Compound 109. In that case, Compound TP-1 was added 5 min after the other incubation components. Other reaction and sample treatment conditions were as described above.
(§3) Table 4 indicates the results of exposure of Compound TP-1 to trypsin in the absence or presence of trypsin inhibitor. The results are expressed as half-life of prodrug when exposed to trypsin (i.e., Prodrug trypsin half-life) in hours and rate of tapentadol (TP) formation in umol/h/BAEE U trypsin.
(§4) Compound TP-1, Compound TP-3, or Compound TP-4 (which can be prepared as described in the examples herein) were incubated in the absence or presence of Compound 109 as shown in Table 8. Incubations and analysis procedures were as described in Example 14.

Data set [1] concerns the target T2, trypsin from bovine pancreas (Bos taurus, UniProt P00760).
T2 construct: purchased Sigma-Aldrich T8003; host or cells: bovine pancreas
T2 sequence (P00760 24-246): T1 sequence (P00760 24-246)
Described as above. In kind it is biochemical. Conditions: 4815 BAEE U trypsin/mL. The protocol: as §1, §2, §3, §4

The subject of data set [2] is norepinephrine uptake into rat hypothalamus synaptosomes. The data set can be described thus: In vitro functional norepinephrine uptake assay. The class given is biochemical. Conditions: rat hypothalamus synaptosomes. The protocol: The general procedure follows the protocol described by S. Perovic and W. E. G. Muller, 1995, Arzneim-Forsch. Drug Res. 45, 1145-1148. More specifically, the assays included each of the compounds indicated in Table 13 and rat hypothalamus synaptosomes incubated with 0.2 μCi/mL [^3H] norepinephrine. For a control reaction, protriptyline was used. The reaction mixtures were incubated at 37° C. for 20 min, and the reaction product of [^3H] norepinephrine incorporation into the synaptosomes was measured by scintillation counting. IC50 values (concentration causing a half-maximal inhibition of control specific activity) were determined by non-linear regression fit using Hill plot software.

A short description of data set [3]: Plasma and cerebrospinal fluid penetration following IV administration to rats. In kind it is in vivo, rat. As to conditions: for concentration at 2 min: male, Sprague Dawley, rat, in vivo, TP-1 10 mg/kg, tapentadol 4 mg/kg. As for the experimental part:
Compound TP-1 (which can be prepared as described in the examples herein) at a dose of 10 mg/kg, or tapentadol, at a dose of 4 mg/kg, were dissolved in saline and injected into the tail vein of 4 male Sprague Dawley rats. These doses represent approximately equimole amounts. After 2 minutes, the rats were anesthetized by carbon dioxide asphyxiation, blood samples were drawn and harvested for plasma by centrifugation at 5,400 rpm at 4° C. for 5 min, and 100 μl plasma was transferred from each sample into a fresh tube containing 2 μl of 50% formic acid. The CSF fluid was collected using a 22×1 inch gauge needle connected to polyurethane catheter type MRE-040 tubing (Braintree Scientific, Inc., Braintree, Mass.). The needle was inserted just below the nuchal crest at the area of the foramen magnum, and clear CSF fluid was collected into the catheter and transferred into a collection tube. The CSF samples were centrifuged at 5,400 rpm at 4° C. for 5 min, and 100 μl CSF fluid was transferred from each sample into a fresh tube. The plasma and CSF samples were immediately placed in dry ice and then stored in a −80° C. freezer until analysis by high performance liquid chromatography/mass spectrometry (HPLC/MS). In order to study Compound TP-1 and tapentadol plasma and CSF penetration over time, additional groups of 4 rats were administered compounds as described above and anesthetized at specified time points. Plasma and CSF were collected and analyzed as described above.
Results in Table 14 are reported, for each group of four rats, as mean concentrations of the indicated compounds in plasma or CSF. Table 14 also provides the plasma-to-CSF (plasma/CSF) partitioning coefficient, i.e., the ratio of concentration in the plasma to concentration in the CSF of the indicated compounds.

Read-outs that look alike come from different tables or passages of the source.

By half-life is commonly meant the time in which the quantity being followed falls by half. For the molecule `CC[C@@H](c1cccc(OC(=O)N(C)CCNC(=O)[C@H](CCCNC(=N)N)NC(=O)CC(=O)O)c1)[C@@H](C)CN(C)C` [Compound TP-1, N—[(S)-1-(2-{[3-((1R,2R)-3-dimethylamino-1-ethyl-2-methyl-propyl)-phenoxycarbonyl]-methyl-amino}-ethylcarbamoyl)-4-guanidino-butyl]-malonamic acid], at trypsin, the half-life at 0.761 nM is 3.94 ± 0.18 h. The “Rate of TP formation, Average ± sd” value in data set [1] (Table 4, Compound 109 0 μM) is on record as 0.0302 ± 0.002 umol/h/BAEE U; in data set [1] (Table 4, Compound 109 2 μM) it was 0.0243 ± 0.0008 umol/h/BAEE U; in data set [1] (Table 8, Compound 109 0 μM), 0.0302 ± 0.002 umol/h/BAEE U; in data set [1] (Table 8, Compound 109 2 μM) it was 0.0243 ± 0.0008 umol/h/BAEE U. Besides, the “activity as a norepinephrine reuptake inhibitor” value in data set [2] is recorded as “no detectable activity”. In addition, the “relative plasma/CSF partitioning coefficient of Compound TP-1 to tapentadol (fold less CSF-penetrant)” value in data set [3] (671/10.4) is listed as “about 64 fold”. In addition, the concentration at 2 min amounted to 65.3 ng/mL in data set [3] (rats, IV, 2 minutes after dosing, read-out: Compound conc. in CSF) and 43800 ng/mL in data set [3] (rats, IV, 2 minutes after dosing, read-out: Compound conc. in Plasma). Moreover, the Plasma/CSF partitioning coefficient in data set [3] (rats, IV, 2 minutes after dosing, ratio of concentration in plasma to concentration in CSF) is 671.
